Several values for one entry are separate records, joined by “and”; a condition that tells them apart may be missing. Equal entries are not always repeated.
Experiments:
[1] = test system: DBA1/J mice with collagen-induced arthritis; test: Collagen induced arthritis (CIA); assay type: in vivo, mouse
From the text: CIA was induced in 8-week-old male DBA1/J mice (Jackson Laboratories) using a standard protocol (Courtenay et al., “Immunisation Against Heterologous Type II Collagen Induces Arthritis in Mice,” Nature 283 (5748):666-668 (1980); Nagler-Anderson et al., “Suppression of Type II Collagen-Induced Arthritis by Intragastric Administration of Soluble Type II Collagen,” Proc. Natl. Acad. Sci. U.S.A. 83 (19):7443-7446 (1986), which are hereby incorporated by reference in their entirety). Briefly, bovine type II collagen (Chondrex, Redmond, Wash.) was dissolved overnight in acetic acid 0.1 N and then homogenized at 1:1 with Complete Freund's Adjuvant (CFA, Difco, Detroit, Mich.). Anesthetized mice were injected intradermally with 100 μg of type II collagen emulsified in CFA in the tail. The new Trpv2 agonist LER13 (10 mg/Kg) or control vehicle (PBS 50%, PEG300 40%, PG 5%, PS80 5%) was started on day 10 (D10) and administered intra-peritoneally every-other-day (from D10 until day 55). On day 21 (D21), mice received a booster injection of 100 μg of type II collagen in incomplete Freund's adjuvant. Clinical signs of arthritis were evident on day 24 (D24).
Arthritis severity in CIA mice was scored using a modified scoring system based on Jirholt et al., “Genetic Linkage Analysis of Collagen-Induced Arthritis in the Mouse,” Eur. J. Immunol. 28 (10):3321-3328 (1998), which is hereby incorporated by reference in its entirety. Briefly, the modified scoring system ranged from 0-16 per mouse per day and included a functional component of disease severity (non-weight bearing) in the maximum score of 4 per paw. The arthritis severity index (ASI), which is the sum of all scores obtained during the observation period, was used to compare treatment groups as it provides a comprehensive assessment of arthritis severity over time, and correlates with histologic damage (Brenner et al., “The Non-MHC Quantitative Trait Locus Cia10 Contains a Major Arthritis Gene and Regulates Disease Severity, Pannus Formation and Joint Damage,” Arthritis Rheum. 52 (1):322-332 (2005); Brenner et al., “The Non-MHC Quantitative Trait Locus Cia5 Contains Three Major Arthritis Genes that Differentially Regulate Disease Severity, Pannus Formation, and Joint Damage in Collagen- and Pristane-Induced Arthritis,” J. Immunol. 174 (12):7894-7903 (2005), which are hereby incorporated by reference in their entirety).

[2] = test system: C57BL/6 mice with KRN serum transfer-induced arthritis; test: KRN serum transfer induced arthritis (clinical scores and histology); assay type: in vivo, mouse
Method: Seven to eight week-old C57BL/6 male mice (Jackson Laboratories) received 200 μl of KRN arthritogenic serum (Ji et al, “Genetic Influences on the End-Stage Effector Phase of Arthritis,” J. Exp. Med. 194 (3):321-330 (2001), which is hereby incorporated by reference in its entirety) (KBN TCR transgenic mice were a kind gift from Christophe Benoist and have been intercrossed with NOD at the Feinstein Institute to generate KRN mice and the arthritogenic serum) intraperitoneal (IP) on day zero (D0) and day 2 (D2). After the onset of clear ankle arthritis (day 3; D3), mice were started on O1821 10 mg/Kg IP BID or control vehicle (DMSO in saline solution). Arthritis severity was scored according to the system reported by Jirholt et al., “Genetic Linkage Analysis of Collagen-Induced Arthritis in the Mouse,” Eur. J. Immunol. 28 (10):3321-3328 (1998), which is hereby incorporated by reference in its entirety, which includes a number of involved joints and a degree of inflammation (swelling/redness) in a scale of 0-12 per mouse per day.
[…] Histology slides were scored without knowledge of treatment and according to a comprehensive scoring system previously reported that includes parameters for synovial hyperplasia, inflammatory cell infiltration, and bone and cartilage erosions (Brenner et al., “The Non-MHC Quantitative Trait Locus Cia10 Contains a Major Arthritis Gene and Regulates Disease Severity, Pannus Formation and Joint Damage,” Arthritis Rheum. 52 (1):322-332 (2005), which is hereby incorporated by reference in its entirety).

phosphorylated Akt = test: FLS levels of phosphorylated Akt; assay type: cell-based
[3] = 10 mg/Kg IP every-other-day from D10, scoring to D76

Row | Structure (SMILES) | Maximum arthritis severity score per mouse, mean±SD ([1]; 10 mg/Kg IP every-other-day) | Reduction of maximum arthritis severity scores per mouse vs vehicle ([1]; 10 mg/Kg IP every-other-day) | Arthritis severity index (ASI), mean±S.D. [1, 3] | Reduction in mean cumulative arthritis scores vs vehicle [1, 3] [%] | Arthritis severity (CIA) ([1]; collagen-induced arthritis) | Number of joints with the maximum score ([1]; day 63) | Number of joints with the maximum score ([1]; day 70) | Arthritis severity scores ([2]; 10 mg/Kg BID IP from day 3 to day 9) | Arthritis severity index (ASI), mean±S.D. ([2]; 10 mg/Kg IP BID from day 3) | Lower arthritis severity index (ASI) vs vehicle ([2]; 10 mg/Kg IP BID from day 3) [%] | Histologic parameters (angiogenesis, inflammatory infiltration, pannus formation, loss of proteoglycan) ([2]; ankles at D10, blinded scoring) | Angiogenesis ([2]; histology, vs control vehicle) | Synovial pannus formation ([2]; histology, vs control vehicle) | Synovial tissue inflammatory infiltration ([2]; histology, vs control vehicle) | Levels of phosphorylated Akt (phosphorylated Akt)
1 | C#Cc1cc(O)c(C2C=C(C)CCC2C(=C)C)c(O)c1C1C=C(C)CCC1C(=C)C [Compound 13, (1R,2″R,2R,2″S)-6′-ethynyl-5,5″-dimethyl-2,2″-di(prop-1-en-2-yl)-1,1″,2,2″,3,3″,4,4″-octahydro-[1,1′:3′,1″-terphenyl]-2′,4′-diol] | 7±4.2 | ~50% and 50% | 40.7±36.8 | 50 | Protective in CIA | 5 | 1 | – | – | – | – | – | – | – | –
2 | C=C(C)[C@@H]1CCC(C)=C[C@H]1c1c(O)cc(C)cc1O [Compound O1821] | – | – | – | – | – | – | – | reductions in arthritis severity scores | 38.8±6.3 | 30 | reduced several histologic parameters | marked reduction | reduced | reduced | did not affect

Source: patent US20200277246A1, “TREATMENT METHOD, COMPOUNDS, AND METHOD OF INCREASING TRPV2 ACTIVITY” (THE FEINSTEIN INSTITUTE FOR MEDICAL RESEARCH, priority 2015, published 2020)
